{"source": "patent EP4509511A1", "about": "“SUBSTITUTED SPIRO-ISOXAZOLINYL LACTAMS, SALTS THEREOF AND THEIR USE AS HERBICIDALLY ACTIVE SUBSTANCES” (Bayer Aktiengesellschaft, priority 2023, dated 2025)", "key": {"ECHCG": {"tested_on": "ECHCG", "experiment": "Herbicidal post-emergence action - Part II", "type": "in vivo, Echinochloa crus-galli", "settings": "20 g/ha; Table E3a", "source_text": "(§1) Seeds of mono- and dicotyledonous weed plants and crop plants were sown, in plastic or organic planting pots, in sandy loam, covered with soil and grown in a greenhouse under controlled growth conditions. 2 to 3 weeks after sowing, the test plants were sprayed in the single-leaf stage. The compounds according to the invention, formulated in form of wettable powders (WP) or as emulsifiable concentrates (EC), were sprayed onto the green plant parts as aqueous suspension or emulsion, with the addition of 0.5% of an additive, at an application rate of 600 1 of water/ha (converted). The test plants were placed in the greenhouse for ca. 3 weeks under optimum growth conditions, and then the effect of the preparations was assessed visually in comparison with untreated controls (herbicidal effect in percent (%): 100% effect = plants have died off, 0% effect = as control plants). Tables E1 to E10 below show the effects of selected compounds of the general formula (I) according to table 1 on various harmful plants and an application rate corresponding to 320 g/ha or below obtained by the experimental procedure mentioned above. Table E1a: post-emergence activity at 5g/ha against ABUTH in %"}, "MATIN": {"tested_on": "MATIN", "experiment": "Herbicidal post-emergence action - Part II", "type": "in vivo, Matricaria inodora", "source_text": "as §1"}, "VERPE": {"tested_on": "VERPE", "experiment": "Herbicidal post-emergence action - Part II", "type": "in vivo, Veronica persica", "source_text": "as §1"}, "AMARE": {"tested_on": "AMARE", "experiment": "Herbicidal post-emergence action - Part II", "type": "in vivo, Amaranthus retroflexus", "source_text": "as §1"}, "PHBPU": {"tested_on": "PHBPU", "experiment": "Herbicidal post-emergence action - Part II", "type": "in vivo, Pharbitis purpurea", "source_text": "as §1"}, "ABUTH": {"tested_on": "ABUTH", "experiment": "Herbicidal post-emergence action - Part II", "type": "in vivo, Abutilon theophrasti", "source_text": "as §1"}, "TRZAS": {"tested_on": "TRZAS", "experiment": "Post-emergence effects on crop plants", "type": "in vivo, Triticum aestivum", "settings": "crop plant", "source_text": "as §1, with “F1” for “E1”, “F5” for “E10”, “crop” for “harmful”, “[…]:” for “E1a:”, “ZEAMX” for “ABUTH”"}, "SETVI": {"tested_on": "SETVI", "experiment": "Herbicidal post-emergence action - Part II", "type": "in vivo, Setaria viridis", "settings": "20 g/ha; Table E7b", "source_text": "as §1"}, "ZEAMX": {"tested_on": "ZEAMX", "experiment": "Post-emergence effects on crop plants", "type": "in vivo, Zea mays", "settings": "20 g/ha; Table F1b; crop plant", "source_text": "as §1, with “F1” for “E1”, “F5” for “E10”, “crop” for “harmful”, “[…]:” for “E1a:”, “ZEAMX” for “ABUTH”"}, "VIOTR": {"tested_on": "VIOTR", "experiment": "Herbicidal post-emergence action - Part II", "type": "in vivo, Viola tricolor", "source_text": "as §1"}, "POLCO": {"tested_on": "POLCO", "experiment": "Herbicidal post-emergence action - Part II", "type": "in vivo, Polygonum convolvulus", "settings": "20 g/ha; Table E6", "source_text": "as §1"}}}
{"smiles": "Cn1c(C(F)(F)F)cc(=O)n(-c2cc(C3=NOC4(CCN(Cc5ccccc5Cl)C4=O)C3)c(Cl)cc2F)c1=O", "note": "(racemic) [Compound I-30]", "values": [{"measurement": "post-emergence activity against ECHCG", "setting": "ECHCG", "result": 100, "unit": "%"}, {"measurement": "post-emergence activity against MATIN", "setting": "MATIN; 20 g/ha, Table E4b", "result": 100, "unit": "%"}, {"measurement": "post-emergence activity against VERPE", "setting": "VERPE; 5 g/ha, Table E8a", "result": 90, "unit": "%"}, {"measurement": "post-emergence activity against VERPE", "setting": "VERPE; 20 g/ha, Table E8b", "result": 100, "unit": "%"}, {"measurement": "post-emergence activity against AMARE", "setting": "AMARE; 5 g/ha, Table E2a", "result": 100, "unit": "%"}, {"measurement": "post-emergence activity against AMARE", "setting": "AMARE; 20 g/ha, Table E2b", "result": 100, "unit": "%"}, {"measurement": "post-emergence activity against PHBPU", "setting": "PHBPU; 5 g/ha, Table E5a", "result": 100, "unit": "%"}, {"measurement": "post-emergence activity against PHBPU", "setting": "PHBPU; 20 g/ha, Table E5b", "result": 100, "unit": "%"}, {"measurement": "post-emergence activity against ABUTH", "setting": "ABUTH; 5 g/ha, Table E1a", "result": 100, "unit": "%"}, {"measurement": "post-emergence activity against ABUTH", "setting": "ABUTH; 20 g/ha, Table E1b", "result": 100, "unit": "%"}, {"measurement": "post-emergence activity against TRZAS", "setting": "TRZAS; 5 g/ha, Table F2a", "result": 20, "unit": "%"}, {"measurement": "post-emergence activity against TRZAS", "setting": "TRZAS; 20 g/ha, Table F2b", "result": 20, "unit": "%"}, {"measurement": "post-emergence activity against SETVI", "setting": "SETVI", "result": 100, "unit": "%"}, {"measurement": "post-emergence activity against ZEAMX", "setting": "ZEAMX", "result": 20, "unit": "%"}, {"measurement": "post-emergence activity against VIOTR", "setting": "VIOTR; 5 g/ha, Table E9a", "result": 100, "unit": "%"}, {"measurement": "post-emergence activity against VIOTR", "setting": "VIOTR; 20 g/ha, Table E9b", "result": 100, "unit": "%"}]}
{"smiles": "Cn1c(C(F)(F)F)cc(=O)n(-c2cc(C3=NOC4(CCN(Cc5cccc(F)c5F)C4=O)C3)c(Cl)cc2F)c1=O", "note": "(racemic) [Compound I-33]", "values": [{"measurement": "post-emergence activity against ECHCG", "setting": "ECHCG", "result": 100, "unit": "%"}, {"measurement": "post-emergence activity against MATIN", "setting": "MATIN; 5 g/ha, Table E4a", "result": 90, "unit": "%"}, {"measurement": "post-emergence activity against MATIN", "setting": "MATIN; 20 g/ha, Table E4b", "result": 100, "unit": "%"}, {"measurement": "post-emergence activity against VERPE", "setting": "VERPE; 5 g/ha, Table E8a", "result": 100, "unit": "%"}, {"measurement": "post-emergence activity against VERPE", "setting": "VERPE; 20 g/ha, Table E8b", "result": 100, "unit": "%"}, {"measurement": "post-emergence activity against AMARE", "setting": "AMARE; 5 g/ha, Table E2a", "result": 100, "unit": "%"}, {"measurement": "post-emergence activity against AMARE", "setting": "AMARE; 20 g/ha, Table E2b", "result": 100, "unit": "%"}, {"measurement": "post-emergence activity against PHBPU", "setting": "PHBPU; 5 g/ha, Table E5a", "result": 100, "unit": "%"}, {"measurement": "post-emergence activity against PHBPU", "setting": "PHBPU; 20 g/ha, Table E5b", "result": 100, "unit": "%"}, {"measurement": "post-emergence activity against ABUTH", "setting": "ABUTH; 5 g/ha, Table E1a", "result": 100, "unit": "%"}, {"measurement": "post-emergence activity against ABUTH", "setting": "ABUTH; 20 g/ha, Table E1b", "result": 100, "unit": "%"}, {"measurement": "post-emergence activity against POLCO", "setting": "POLCO", "result": 100, "unit": "%"}, {"measurement": "post-emergence activity against TRZAS", "setting": "TRZAS; 5 g/ha, Table F2a", "result": 20, "unit": "%"}, {"measurement": "post-emergence activity against TRZAS", "setting": "TRZAS; 20 g/ha, Table F2b", "result": 20, "unit": "%"}, {"measurement": "post-emergence activity against SETVI", "setting": "SETVI", "result": 100, "unit": "%"}, {"measurement": "post-emergence activity against VIOTR", "setting": "VIOTR; 5 g/ha, Table E9a", "result": 100, "unit": "%"}, {"measurement": "post-emergence activity against VIOTR", "setting": "VIOTR; 20 g/ha, Table E9b", "result": 100, "unit": "%"}]}
